Data taken from paper PMC6742641, “Design, synthesis and biological evaluation of a series of CNS penetrant HDAC inhibitors structurally derived from amyloid-β probes” (Scientific Reports, 2019).
Where two headings read alike, the source gives them in different places.

Legend:
SH-SY5Y cells = assay: Cell proliferation (anti-proliferation) assay, MTS; type: cell-based, human; details: for GI50 / IC50: Homo sapiens; for GI50: SH-SY5Y neuroblastoma cell line, 72 h, mean ± SD (n = 4); for IC50: read-out: anti-proliferative activity IC50 against SH-SY5Y cell line
Procedure: SH-SY5Y cells were grown in DMEM with L-glutamin supplemented with streptomycin ([…]), penicillin (100 units/mL), and 10% fetal bovine serum (FBS). Cells were grown to confluence in a humidified atmosphere (37 °C, 5% CO2).
SH-SY5Y cells (1.5 × 10^3 cells/well) were seeded in a clear 96-well plate, the medium volume was brought to 100 µL, and the cells were allowed to attach overnight. The next day, various concentrations of compounds or DMSO were added to the wells. Cells were then incubated at 37 °C for 24, 48 and 72 h. Cell viability was determined using the Promega Cell Titer 96 Aqueous One Solution cell proliferation assay. Absorbance at 490 nm was read on Tecan Infinite F200 Pro plate reader, and values were expressed as percent of absorbance from cells incubated in DMSO alone.

PAMPA-BBB assay = type: in vitro ADME; details: for Papp at 4 h, 25 μM: PAMPA, read-out: Pe
Procedure: BBB-PAMPA was conducted by manufacturer’s instruction (pION Inc, MA, USA). […] Transmembrane side to donor part was coated with BBB lipid solution and add 200 μL acceptor buffer in upper part of PAMPA sandwich plate.

[1] = In vivo brain pharmacokinetic study; details: ICR male mice, IV, 2 mg/kg
Procedure: The study was approved by the Institutional Animal Care and Use of Committee of Daegu-Gyeongbuk Medical Innovation Foundation (DGMIF) and performed in accordance with protocols approved by the Institutional Animal Care and Use of Committee. […] Brain and plasma samples were collected at 0.5 and 1 h time points. Brain samples were homogenized at a 1:4 ratio of sample weight (g) to PBS volume (mL). Aliquots (20 μL) of brain homogenate were mixed with 180 μL of acetonitrile, vortexed and centrifuged at 15,000 rpm for 5 minutes at 4 °C. The resulting supernatants were used for LC-MS/MS analysis. Mice plasma samples were collected at 0.5 and 1 h time points. 180 μL of acetonitrile was added to 20 μL of plasma samples, vortexed and centrifuged at 15,000 rpm for 5 minutes at 4 °C.

Ac-α-tubulin = assay: Western blot of acetylation status in SH-SY5Y cells; type: cell-based, human; details: 24 h, 1 μM
Procedure: Cells were seeded in 100 mm culture dishes (1 × 10^6 cells/dish), and allowed to attach overnight. Inhibitors were added at the concentrations as indicated and the cells were incubated for an additional 24 hours. For comparison, cells were also incubated with DMSO (0.5%) for 24 hours. Cells were harvested in ice-cold lysis buffer (23 mM Tris-HCl pH 7.6, 130 mM NaCl, 1% NP-40, 1% sodium deoxycholate, 0.1% SDS), and 30 µg of lysate per lane was separated by SDS-PAGE and followed by transferring to a PVDF membrane (Bio-Rad). The membrane was blocked with 5% skim milk in TBST, and then incubated with the corresponding antibody (Ac-α-tubulin, α-tubulin, Ac-Histone H3, Histone H3 or β-actin). After binding of an appropriate secondary antibody coupled to horseradish peroxidase, proteins were visualized by ECL chemiluminescence according to the instructions of the manufacturer (GE healthcare, USA).

[2] = 25 μM, pH 7.4, 4 h, 25 °C, mean ± SD, three independent experiments

Structure (SMILES): O=C(NO)c1cccc(-c2nc3ccccc3s2)c1 [Compound 17b]
- GI50 (SH-SY5Y cells): 21.4 ± 1.65 µM

Structure (SMILES): O=C(NO)c1ccc(-c2nc3ccccc3[nH]2)cc1 [Compound 5]
- GI50 (SH-SY5Y cells): 60 ± 1.5 µM
- IC50 (SH-SY5Y cells; SH-SY5Y, Table 1 values IC50): 60 µM

Structure (SMILES): O=C(CCCCCCC(=O)Nc1ccccc1)NO [SAHA, suberoylanilide hydroxamic acid, reference compound]
- IC50 (SH-SY5Y cells; SH-SY5Y): 2.9 µM
- GI50 (SH-SY5Y cells): 2.9 ± 0.28 µM
- Pe (10^−6 cm/s) (PAMPA-BBB assay; [2]): 2.77 10^−6 cm/s
- Papp at 4 h, 25 μM (PAMPA-BBB assay; [2]): 2.77 ± 0.05 ×10⁻⁶ cm/s
- Brain concentration (ng/mL) 0.5 h ([1]; 0.5 h, n = 4): 14.5 ± 2.8 ng/mL
- Brain concentration (ng/mL) 1 h ([1]; 1 h, n = 4): BQL
- Kp at 0.5 h ([1]; mouse, brain/plasma, 0.5 h, read-out: Brain/plasma ratio 0.5 h): 0.4
- concentration at 0.5 h ([1]; mouse, brain, 0.5 h, n = 4, read-out: Brain concentration (ng/mL) 0.5 h): 14.5 ng/mL
- concentration at 0.5 h ([1]; mouse, plasma, 0.5 h, n = 4, read-out: Plasma concentration (ng/mL) 0.5 h): 39.2 ± 11.5 ng/mL
- concentration at 1 h ([1]; mouse, plasma, 1 h, n = 4, read-out: Plasma concentration (ng/mL) 1 h): 4.5 ± 2.7 ng/mL
- acetylation of α-tubulin at 1 μM, SAHA versus 9b (Ac-α-tubulin): induced more acetylation of α-tubulin than compound 9b

Structure (SMILES): CCn1c(-c2ccc(C(=O)NO)cc2)nc2ccccc21 [Compound 6b]
- GI50 (SH-SY5Y cells): 38.1 ± 0.2 µM

Structure (SMILES): CCn1c(-c2cccc(C(=O)NO)c2)nc2ccccc21 [Compound 14b]
- GI50 (SH-SY5Y cells): 28.2 ± 0.75 µM

Structure (SMILES): O=C(NO)c1ccc(-c2nc3ccccc3o2)cc1 [Compound 9a]
- GI50 (SH-SY5Y cells): 25.7 ± 0.05 µM
- IC50 (SH-SY5Y cells; SH-SY5Y, Table 1 values IC50): 25.7 µM
- fold less potent anti-proliferative activity than compound 9b (SH-SY5Y cells; SH-SY5Y): 12 fold

Structure (SMILES): O=C(NO)c1cccc(-c2nc3ccccc3o2)c1 [Compound 17a]
- GI50 (SH-SY5Y cells): 17.5 ± 0.35 µM

Structure (SMILES): CC(=O)[C@H]1CC[C@H]2[C@@H]3CCC4=CC(=O)CC[C@]4(C)[C@H]3CC[C@]12C [Progesterone]
- CNS +/− classification (PAMPA-BBB assay; PAMPA-BBB): CNS + (CNS + indicates (Pe > 10))
- Papp at 4 h, 25 μM (PAMPA-BBB assay; [2]): 35.52 ± 0.33 ×10⁻⁶ cm/s

Structure (SMILES): CCCCn1c(-c2cccc(C(=O)NO)c2)nc2ccccc21 [Compound 14d]
- GI50 (SH-SY5Y cells): 20.7 ± 1 µM

Structure (SMILES): Cn1c(-c2cccc(C(=O)NO)c2)nc2ccccc21 [Compound 14a]
- GI50 (SH-SY5Y cells): > 100 µM

Structure (SMILES): O=C(NO)c1cccc(-c2nc3ccccc3[nH]2)c1 [Compound 13]
- GI50 (SH-SY5Y cells): > 100 µM

Structure (SMILES): CCCn1c(-c2ccc(C(=O)NO)cc2)nc2ccccc21 [Compound 6c]
- GI50 (SH-SY5Y cells): 54.7 ± 0.95 µM

Structure (SMILES): CCCn1c(-c2cccc(C(=O)NO)c2)nc2ccccc21 [Compound 14c]
- GI50 (SH-SY5Y cells): 34.6 ± 0.6 µM

Structure (SMILES): CCCCn1c(-c2ccc(C(=O)NO)cc2)nc2ccccc21 [Compound 6d]
- GI50 (SH-SY5Y cells): 26.8 ± 1.35 µM
- IC50 (SH-SY5Y cells; SH-SY5Y, Table 1 values IC50): 26.8 µM
- fold increase in potency from non-substituted analogue 5 (SH-SY5Y cells; SH-SY5Y): ~2 fold

Structure (SMILES): Cn1c(-c2ccc(C(=O)NO)cc2)nc2ccccc21 [Compound 6a]
- GI50 (SH-SY5Y cells): 58.3 ± 10.8 µM
